Experimental data as given in patent publication US11419803B2, “Skin darkening composition” (Conopco, Inc., priority 2017, dated 2022).

Assays:
[1] = tested on: Neonatal foreskin primary human epidermal melanocytes; test: Cell viability, calcein method; assay type: cell-based
Protocol: (§1) All test compounds were purchased from SIGMA-ALDRICH as powders. They were tested at various concentrations in cell culture (see below). Forskolin (SIGMA Cat. # F6886) was used as reference comparators, as they have been reported to increase melanin content. Neonatal foreskin primary human epidermal melanocytes were procured from Cascade Biologicals (labelled passage P0). Melanocytes were maintained in Medium 254CF (Cascade Cat. # M-254CF-500) supplemented with human melanocyte growth supplement (Cascade; Cat. # S-002-5), hereafter referred to as MGM. Cells were maintained at 37° C. in a humidified incubator with 5% CO2 atmosphere.
(§2) 50,000 cells were seeded in 24 well plate in MGM; after 24 hours, cultures were treated with various concentrations of the test materials and left undisturbed for a further period of 72 hours. Comparative vehicle controls of 0.25% (v/v) DMSO were also set up in parallel, simultaneously. At the end of the incubation period, cell viability was determined using the calcein method.
Briefly, cell culture spent media was removed and cells washed once with 0.4 ml of 1× PBS-Ca—Mg solution. Fresh 1 μM calcein-AM was added (0.2 ml/well), including to control wells without cells. Plates were covered with aluminium foil and incubated for 30 minutes. at 37° C. in the regular CO2 incubator. Calcein fluorescence was then measured (λmax 490 nm and λmax 520 nm) in TECAN® M1000 Infinite series plate reader.
(§3) Calcein fluorescence values were ratio converted in 0 to 100 scale (% viability), with 100 representing the value of the 0.25% DMSO sample. % Melanin content was calculated as the ratio between OD405 nm value of any sample to that of DMSO reference sample.

[2] = tested on: Neonatal foreskin primary human epidermal melanocytes; test: Melanin content assay; assay type: cell-based; conditions: 72 hours, compared to vehicle control = 100
Protocol: as §1, §2
After calcein fluorescence readings were obtained, cells were drained and added fresh 125 μl of 1N NaOH (in 10% DMSO) per well. Cells were lysed by resuspension and incubation (60° C./1 hour.). Then this lysate was transferred to a fresh […] and measured OD405 nm in a TECAN M1000 plate reader (estimate of relative melanin content).
as §3
Normalized melanin content value was then calculated as 100*(% Melanin Content)/(% Cellular viability).
The percentage Increase in melanin content was estimated as [(Normalized melanin content)−100]

Row | Compound | % Viability ([1]; human, 72 h, 6.25 µM) [%] | % Viability ([1]; human, 72 h, 12.5 µM) [%] | % Viability ([1]; human, 72 h, 25 µM) [%] | % Melanin content ([2]; 6.25 micromolar) [%] | % Melanin content ([2]; 12.5 micromolar) [%] | % Melanin content ([2]; 25 micromolar) [%] | % Viability ([1]; 10 micromolar, 72 hours, relative to 0.25% DMSO control = 100) [%] | % Viability ([1]; 15 micromolar, 72 hours, relative to 0.25% DMSO control = 100) [%] | % Viability ([1]; 20 micromolar, 72 hours, relative to 0.25% DMSO control = 100) [%] | % Viability ([1]; 25 micromolar, 72 hours, relative to 0.25% DMSO control = 100) [%] | % Melanin content ([2]; 10 micromolar) [%] | % Melanin content ([2]; 15 micromolar) [%] | % Melanin content ([2]; 20 micromolar) [%] | % Viability ([1]; human, 72 h, 10 µM) [%] | % Viability ([1]; human, 72 h, 15 µM) [%] | % Viability ([1]; human, 72 h, 20 µM) [%] | % Viability ([1]; human, 72 h, 5 µM) [%] | % Melanin content ([2]; 5 micromolar) [%]
1 | CCCCCCCc1ccc(C(=O)O)cc1 [Example 1, 4-heptyl benzoic acid] | 102 | 102 | 93 | 124 | 129 | 113 |  |  |  |  |  |  |  |  |  |  |  | 
2 | CCCCCCCOc1ccc(C(=O)O)cc1 [Example 2, 4-heptyloxybenzoic acid] |  |  |  |  |  | 137 | 94 | 96 | 95 | 96 | 117 | 126 | 129 |  |  |  |  | 
3 | CCCCCCCCOc1ccc(C(=O)O)cc1 [Example 3, 4-octyloxybenzoic acid] |  |  | 86 |  |  | 86 |  |  |  |  | 127 | 144 | 127 | 101 | 103 | 100 |  | 
4 | CCCCCCCCCOc1ccc(C(=O)O)cc1 [Example 4, 4-nonyloxybenzoic acid] |  |  | 103 |  |  | 137 |  |  |  |  | 129 | 136 | 130 | 109 | 109 | 103 | 102 | 126
5 | CCCCCCCCCCCOc1ccc(C(=O)O)cc1 [Example 5, 4-undecyloxybenzoic acid] |  |  | 79 |  |  | 120 |  |  |  |  | 136 | 146 | 134 | 97 | 100 | 90 |  | 
